The record followed here is patent US20140005165A1, “SUBSTITUTED 3-AZABICYCLO[3.1.0]HEXANE DERIVATIVES USEFUL AS CCR2 ANTAGONISTS” (priority 2011, published 2014).

The target of one experiment is T1, human CCR2 (Homo sapiens, UniProt P41597).
T1 construct: expressed in transfected cells; host or cells: Ba/F3 cells (membrane preparation)
T1 sequence (P41597 whole entry): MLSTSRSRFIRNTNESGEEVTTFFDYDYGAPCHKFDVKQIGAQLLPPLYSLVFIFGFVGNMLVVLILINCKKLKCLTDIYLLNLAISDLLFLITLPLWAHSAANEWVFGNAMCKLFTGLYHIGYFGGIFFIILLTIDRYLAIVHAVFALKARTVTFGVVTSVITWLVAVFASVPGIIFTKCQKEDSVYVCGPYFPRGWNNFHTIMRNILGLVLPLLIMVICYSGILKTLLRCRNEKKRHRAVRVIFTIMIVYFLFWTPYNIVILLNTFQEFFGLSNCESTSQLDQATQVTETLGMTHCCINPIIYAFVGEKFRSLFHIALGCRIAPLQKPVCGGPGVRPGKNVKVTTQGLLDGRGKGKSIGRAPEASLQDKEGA
Put plainly: CCR2 Membrane Binding Assay (SPA radio-ligand binding, 125I-rhMCP-1). The following applies: membranes from Ba/F3 cells transfected with human CCR2; 0.03 nM 125I-rhMCP-1; 4 h room temperature. As for the experimental part: The radio-ligand binding assay was done using scintillation proximity assay (SPA) technology. Briefly, membranes (1 μg per assay point) from Ba/F3 cells transfected with human CCR2, and wheat germ agglutinin-coated SPA beads (80 μg per point; Amersham, Arlington Heights, Ill.), were pre-incubated for 30 min at room temperature in CCR2 buffer (50 mM HEPES (pH=7.4), 10 mM MgCl2, 10 mM NaCl, 1 mM CaCL2, 0.1% BSA, 10 μg/ml Saponin). At this point pre-bound SPA bead, membrane complex was incubated at room temperature for 4 h with varying concentrations of punitive CCR2 antagonists (in 1% DMSO, final) and 0.03 nM ^125I-rhMCP-1 in CCR2Buffer (S.A. 2200 Ci/mmol, PerkinElmer Life and Analytical Science, Boston, Mass.; NEX332). Binding competition was measured using a 1450 Microbeta Trilux counter (Wallac, Gaithersburg, Md.). Binding constants (IC50 and slope) were calculated using GraphPad Prism software (GraphPad Software, Inc., La Jolla Calif.).
Regarding `Cn1cc([C@H]2CC[C@@H](N3C[C@@H]4[C@H](C3)[C@H]4C(=O)NCC(=O)Nc3cccc(C(F)(F)F)c3)CC2)cn1` [Compound 94], the IC50 (as a rule, the concentration that inhibits the measured activity by half) is 13.6 nM.

The molecule `O=C(CNC(=O)[C@H]1[C@@H]2CN([C@H]3CC[C@@H](c4ccsc4)CC3)C[C@@H]21)Nc1cccc(C(F)(F)F)c1` [Compound 97] came in with a concentration for half-maximal inhibition (IC50) of 3.7 nM.

As to `O=C(CNC(=O)[C@H]1[C@@H]2CN([C@H]3CC[C@@H](c4ccc(O)cc4)CC3)C[C@@H]21)Nc1cccc(C(F)(F)F)c1` [Compound 114], the IC50 stood at 3.1 nM. The IC50 values of the last two molecules are within 1.5-fold of each other.

In the case of `O=C(CNC(=O)[C@H]1[C@@H]2CN([C@H]3CC[C@@H](c4ccc(F)cc4)CC3)C[C@@H]21)Nc1cccc(C(F)(F)F)c1` [Compound 119], the half-maximal inhibitory concentration (IC50) worked out at 6.1 nM. This IC50 is about 2-fold higher than that of the molecule before.

In turn, `O=C(CNC(=O)[C@H]1[C@@H]2CN(C3CCC(O)(c4nccs4)CC3)C[C@@H]21)Nc1cccc(C(F)(F)F)c1` (stereo partly shown) [Compound 120] registered a half-maximal inhibitory concentration (IC50) of 3.9 nM.

`COc1ccc([C@H]2CC[C@@H](N3C[C@@H]4[C@H](C3)[C@H]4C(=O)NCC(=O)Nc3cccc(C(F)(F)F)c3)CC2)cc1` [Compound 130] yielded a 50% inhibitory concentration (IC50) of 4 nM.

`COc1ccc([C@H]2CC[C@@H](N3C[C@@H]4[C@H](C3)[C@H]4C(=O)NCC(=O)Nc3cccc(C(F)(F)F)c3)CC2)cn1` [Compound 132] registered an IC50 of 3.4 nM.

With `O=C(CNC(=O)[C@H]1[C@@H]2CN([C@H]3CC[C@@H](c4ccc5c(c4)OCO5)CC3)C[C@@H]21)Nc1cccc(C(F)(F)F)c1` [Compound 143], the IC50 was 4.1 nM.

Staying with this experiment, now noted: membranes from Ba/F3 cells transfected with human CCR2; 0.03 nM 125I-rhMCP-1; class symbols.
Molecule `O=C(CNC(=O)[C@H]1[C@@H]2CN([C@H]3CC[C@@H](c4cncnc4)CC3)C[C@@H]21)Nc1cccc(C(F)(F)F)c1` [Compound 91] returned an IC50 of less than 50 nM.

In turn, `CC(C)N1C[C@@H]2[C@H](C1)[C@H]2C(=O)NCC(=O)Nc1cccc(C(F)(F)F)c1` [Compound 93] registered an IC50 of 51 to 200 nM.

`Cn1ccnc1C1CCC(N2C[C@@H]3[C@H](C2)[C@H]3C(=O)NCC(=O)Nc2cccc(C(F)(F)F)c2)CC1` (stereo partly shown) [Compound 95] returned an IC50 of 51 to 200 nM.

Take `Cn1cc([C@H]2CC[C@H](N3C[C@@H]4[C@H](C3)[C@H]4C(=O)NCC(=O)Nc3cccc(C(F)(F)F)c3)CC2)cn1` [Compound 96]: the “IC50 (nM)” value is “D (compounds with IC50 values between 701 nM and 110 nM are designated as D class compounds)”.

In turn, `O=C(CNC(=O)[C@H]1[C@@H]2CN([C@H]3CC[C@@H](c4cccs4)CC3)C[C@@H]21)Nc1cccc(C(F)(F)F)c1` [Compound 98] returned an IC50 of less than 50 nM.

For `O=C(CNC(=O)[C@H]1[C@@H]2CN([C@H]3CC[C@H](c4ccsc4)CC3)C[C@@H]21)Nc1cccc(C(F)(F)F)c1` [Compound 99], the IC50 lay in the range of 51 to 200 nM.

Consider `O=C(CNC(=O)[C@H]1[C@@H]2CN([C@H]3CC[C@H](c4cccs4)CC3)C[C@@H]21)Nc1cccc(C(F)(F)F)c1` [Compound 100], for which the IC50 lay in the range of 201 to 700 nM.

Regarding `O=C([C@H]1[C@@H]2CN([C@H]3CC[C@@H](c4ccccc4)CC3)C[C@@H]21)N1CCC(c2cccc(C(F)(F)F)c2)CC1` [Compound 106], the “IC50 (nM)” value is “D (compounds with IC50 values between 701 nM and 110 nM are designated as D class compounds)”.

The molecule `O=C([C@H]1[C@@H]2CN([C@H]3CC[C@@H](c4ccccc4)CC3)C[C@@H]21)N1CCN(c2cccc(C(F)(F)F)c2)CC1` [Compound 108] had an IC50 of 201 to 700 nM.

Turning to `O=C(CNC(=O)[C@H]1[C@@H]2CN(C3CCC3)C[C@@H]21)Nc1cccc(C(F)(F)F)c1` [Compound 110], the IC50 lay in the range of 201 to 700 nM.

Molecule `O=C([C@H]1[C@@H]2CN([C@H]3CC[C@@H](c4ccccc4)CC3)C[C@@H]21)N1CC[C@H](Nc2nccc(C(F)(F)F)n2)C1` [Compound 111] came in with an IC50 of 51 to 200 nM.

In turn, `O=C(N[C@@H]1CCN(c2nccc(C(F)(F)F)n2)C1)[C@H]1[C@@H]2CN([C@H]3CC[C@@H](c4ccccc4)CC3)C[C@@H]21` [Compound 112] registered an IC50 of 201 to 700 nM.

In the case of `O=C([C@H]1[C@@H]2CN([C@H]3CC[C@@H](c4ccccc4)CC3)C[C@@H]21)N1CCC(Nc2ncc(C(F)(F)F)cn2)C1` (stereo partly shown) [Compound 113], the IC50 lay within 201 to 700 nM.

`O=C(CNC(=O)[C@H]1[C@@H]2CN([C@H]3CC[C@H](c4ccc(O)cc4)CC3)C[C@@H]21)Nc1cccc(C(F)(F)F)c1` [Compound 115] had an IC50 of less than 50 nM.

As to `O=C(CNC(=O)[C@H]1[C@@H]2CN(C3CC(COCc4ccccc4)C3)C[C@@H]21)Nc1cccc(C(F)(F)F)c1` (stereo partly shown) [Compound 116], the IC50 was 201 to 700 nM.

In turn, `O=C(CNC(=O)[C@H]1[C@@H]2CN([C@H]3CC[C@@H](c4ccc(=O)[nH]c4)CC3)C[C@@H]21)Nc1cccc(C(F)(F)F)c1` [Compound 117] had an IC50 of less than 50 nM.

In turn, `O=C(CNC(=O)[C@H]1[C@@H]2CN([C@H]3CC[C@@H](c4cnc(O)nc4)CC3)C[C@@H]21)Nc1cccc(C(F)(F)F)c1` [Compound 118] had an IC50 of 201 to 700 nM.

Consider `O=C(CNC(=O)[C@H]1[C@@H]2CN(C3CCC(O)(c4cncs4)CC3)C[C@@H]21)Nc1cccc(C(F)(F)F)c1` (stereo partly shown) [Compound 121], for which the IC50 was less than 50 nM.

Turning to `O=C(CNC(=O)[C@H]1[C@@H]2CN(C3CCC(O)(c4nccs4)CC3)C[C@@H]21)Nc1cccc(C(F)(F)F)c1` (stereo partly shown) [Compound 122], the IC50 was 51 to 200 nM.

In the case of `O=C(CNC(=O)[C@H]1[C@@H]2CN(C3CCC(O)(c4cncs4)CC3)C[C@@H]21)Nc1cccc(C(F)(F)F)c1` (stereo partly shown) [Compound 123], the IC50 was 201 to 700 nM.

In the case of `CC(C)(C)OC(=O)[C@H]1CC[C@@H](N2C[C@@H]3[C@H](C2)[C@H]3C(=O)NCC(=O)Nc2cccc(C(F)(F)F)c2)CC1` [Compound 124], the IC50 lay within 201 to 700 nM.

Consider `Cc1[nH]c2c(C(F)(F)F)cccc2c1CCNC(=O)[C@H]1[C@@H]2CN([C@H]3CC[C@@H](c4ccccc4)CC3)C[C@@H]21` [Compound 125], for which the IC50 is 201 to 700 nM.

As to `N#Cc1ccc([C@H]2CC[C@@H](N3C[C@@H]4[C@H](C3)[C@H]4C(=O)NCC(=O)Nc3cccc(C(F)(F)F)c3)CC2)cc1` [Compound 126], the IC50 is less than 50 nM.

On to `O=C([C@H]1[C@@H]2CN([C@H]3CC[C@@H](c4ccccc4)CC3)C[C@@H]21)N1CCN(c2cccc(C(F)(F)F)c2)C(=O)C1` [Compound 127], for which the “IC50 (nM)” value is “D (compounds with IC50 values between 701 nM and 110 nM are designated as D class compounds)”.

The molecule `O=C([C@H]1[C@@H]2CN([C@H]3CC[C@@H](c4ccccc4)CC3)C[C@@H]21)N1CCC(Nc2nccc(C(F)(F)F)n2)CC1` [Compound 128] displayed an IC50 of 201 to 700 nM.

In the case of `CN(C(=O)[C@H]1[C@@H]2CN([C@H]3CC[C@@H](c4ccccc4)CC3)C[C@@H]21)[C@H]1CCN(c2ncc(C(F)(F)F)cn2)C1` [Compound 129], the IC50 fell in the range of 201 to 700 nM.

As for `COc1ccc([C@H]2CC[C@H](N3C[C@@H]4[C@H](C3)[C@H]4C(=O)NCC(=O)Nc3cccc(C(F)(F)F)c3)CC2)cc1` [Compound 131], the “IC50 (nM)” value was “D (compounds with IC50 values between 701 nM and 110 nM are designated as D class compounds)”.

`COc1ncc([C@H]2CC[C@@H](N3C[C@@H]4[C@H](C3)[C@H]4C(=O)NCC(=O)Nc3cccc(C(F)(F)F)c3)CC2)cn1` [Compound 133] registered an IC50 of less than 50 nM.

Molecule `O=C(CNC(=O)[C@H]1[C@@H]2CN([C@H]3CC[C@@H](c4cnc(O)nc4O)CC3)C[C@@H]21)Nc1cccc(C(F)(F)F)c1` [Compound 134] came in with an IC50 of 51 to 200 nM.

Molecule `O=C(NCCc1cc(C(F)(F)F)cc(C(F)(F)F)c1)[C@H]1[C@@H]2CN([C@H]3CC[C@@H](c4ccccc4)CC3)C[C@@H]21` [Compound 135] gave a concentration for half-maximal inhibition (IC50) of 201 to 700 nM.

As for `CC(C)(C)OC(=O)N[C@H]1CC[C@@H](N2C[C@@H]3[C@H](C2)[C@H]3C(=O)NCC(=O)Nc2cccc(C(F)(F)F)c2)CC1` [Compound 136], the IC50 is 51 to 200 nM.

`O=C(CNC(=O)[C@H]1[C@@H]2CN(C3CC=C(c4ccc5c(c4)OCO5)CC3)C[C@@H]21)Nc1cccc(C(F)(F)F)c1` (stereo partly shown) [Compound 139] returned an IC50 of 201 to 700 nM.

On to `O=C(CNC(=O)[C@H]1[C@@H]2CN([C@H]3CC[C@@H](C4Cc5ccccc5O4)CC3)C[C@@H]21)Nc1cccc(C(F)(F)F)c1` (stereo partly shown) [Compound 140], for which the IC50 fell in the range of 201 to 700 nM.

On to `O=C(CNC(=O)[C@H]1[C@@H]2CN([C@H]3CC[C@@H](NC(=O)c4ccccc4)CC3)C[C@@H]21)Nc1cccc(C(F)(F)F)c1` [Compound 141], for which the IC50 is less than 50 nM.

Regarding `O=C(CNC(=O)[C@H]1[C@@H]2CN([C@H]3CC[C@@H](NS(=O)(=O)C4CC4)CC3)C[C@@H]21)Nc1cccc(C(F)(F)F)c1` [Compound 142], the “IC50 (nM)” value is “D (compounds with IC50 values between 701 nM and 110 nM are designated as D class compounds)”.

`COc1ccc(CC2CCCC(N3C[C@@H]4[C@H](C3)[C@H]4C(=O)NCC(=O)Nc3cccc(C(F)(F)F)c3)C2)cc1` (stereo partly shown) [Compound 144] had an IC50 of 51 to 200 nM.

Molecule `COc1ccc(C[C@H]2CC[C@@H](N3C[C@@H]4[C@H](C3)[C@H]4C(=O)NCC(=O)Nc3cccc(C(F)(F)F)c3)CC2)cc1` [Compound 145] came in with an IC50 of 51 to 200 nM.

The molecule `COc1ccc(CC2CCCC(N3C[C@@H]4[C@H](C3)[C@H]4C(=O)NCC(=O)Nc3cccc(C(F)(F)F)c3)C2)cc1` (stereo partly shown) [Compound 146] gave an IC50 of 201 to 700 nM.
